Reference: ChEMBL document CHEMBL3785046, “Synthesis, in vitro and in vivo evaluation of novel substituted N-(4-(2-(4-benzylpiperazin-1-yl)ethoxy)phenyl)-N-methyl-quinazolin-4-amines as potent antitumor agents” (Bioorg Med Chem Lett, 2016)
Values belong to the molecule of their own block, whether it stands above or below them. Activity calls are given as the source filed them. The rule behind the calls is not given here.

Experiments:
[1] = system: MCF7; experiment: Antiproliferative activity against human MCF7 cells after 24 hrs by MTT assay; type: functional, cell-based; details: MCF7, 24 h
[2] = system: A549; experiment: Antiproliferative activity against human A549 cells after 24 hrs by MTT assay; type: functional, cell-based; details: A549, 24 h
[3] = system: HepG2; experiment: Antiproliferative activity against human HepG2 cells after 24 hrs by MTT assay; type: functional, cell-based; details: HepG2, 24 h
[4] = Antiproliferative activity against human SW620 cells after 24 hrs by MTT assay; type: functional, cell-based; details: SW-620, 24 h
[5] = system: Mus musculus; experiment: Toxicity in nude mouse xenografted with human HepG2 cells assessed as abnormal behavior at 10 mg/kg, iv administered every 2 days for 31 days; type: organism-based; details: in vivo
[6] = system: HepG2; experiment: Cell cycle arrest in human HepG2 cells assessed as accumulation at G2/M phase at 200 nM after 24 hrs by propidium iodide staining based flow cytometry (reference value: 19%); type: functional
[7] = system: HepG2; experiment: Cell cycle arrest in human HepG2 cells assessed as accumulation at G1 phase at 500 nM after 24 hrs by propidium iodide staining based flow cytometry (reference value: 42%); type: functional
[8] = system: HepG2; experiment: Antitumor activity against human HepG2 cells xenografted with nude mouse assessed as tumor volume at 10 mg/kg, iv administered every 2 days for 31 days (reference value: 87.39 +/- 3.529 mm3); type: functional
[9] = system: Mus musculus; experiment: Toxicity in nude mouse xenografted with human HepG2 cells assessed as feeding at 10 mg/kg, iv administered every 2 days for 31 days; type: organism-based; details: in vivo
[10] = system: HepG2; experiment: Upregulation of cyclin B1 in human HepG2 cells at 10 to 100 nM after 24 hrs by Western blot analysis; type: functional, cell-based
[11] = system: HepG2; experiment: Cell cycle arrest in human HepG2 cells assessed as accumulation at S phase at 200 nM after 24 hrs by propidium iodide staining based flow cytometry (reference value: 39%); type: functional
[12] = system: Mus musculus; experiment: Toxicity in nude mouse xenografted with human HepG2 cells assessed as weight loss at 10 mg/kg, iv administered every 2 days for 31 days; type: organism-based; details: in vivo
[13] = system: HepG2; experiment: Antitumor activity against human HepG2 cells xenografted with nude mouse assessed as tumor weight at 10 mg/kg, iv administered every 2 days for 31 days; type: functional
[14] = system: HepG2; experiment: Binding affinity to alpha tubulin in human HepG2 cells assessed as disruption of microtubule at 1 uM after 24 hrs by immunofluorescence staining based microscopy; type: cell-based
[15] = system: HepG2; experiment: Upregulation of phosphorylated histone H3 levels in human HepG2 cells at 10 to 100 nM after 24 hrs by Western blot analysis; type: functional, cell-based
[16] = system: HepG2; experiment: Antitumor activity against human HepG2 cells xenografted with nude mouse assessed as tumor mass change at 10 mg/kg, iv administered every 2 days for 31 days; type: functional
[17] = system: HepG2; experiment: Induction of apoptosis in human HepG2 cells assessed as upregulation of cleaved PARP levels at 0.5 uM after 48 hrs by Western blot analysis; type: functional, cell-based
[18] = system: HepG2; experiment: Cell cycle arrest in human HepG2 cells assessed as accumulation at G1 phase at 200 nM after 24 hrs by propidium iodide staining based flow cytometry (reference value: 42%); type: functional
[19] = system: HepG2; experiment: Induction of apoptosis in human HepG2 cells assessed as upregulation of cleaved PARP levels after 48 hrs by Western blot analysis; type: functional, cell-based
[20] = system: HepG2; experiment: Cell cycle arrest in human HepG2 cells assessed as accumulation at S phase at 100 nM after 24 hrs by propidium iodide staining based flow cytometry (reference value: 39%); type: functional
[21] = system: HepG2; experiment: Cell cycle arrest in human HepG2 cells assessed as accumulation at G2/M phase after 24 hrs by propidium iodide staining based flow cytometry (reference value: 19%); type: functional
[22] = system: HepG2; experiment: Cell cycle arrest in human HepG2 cells assessed as accumulation at G2/M phase at 100 nM after 24 hrs by propidium iodide staining based flow cytometry (reference value: 19%); type: functional
[23] = system: HepG2; experiment: Cell cycle arrest in human HepG2 cells assessed as accumulation at G1 phase at 100 nM after 24 hrs by propidium iodide staining based flow cytometry (reference value: 42%); type: functional
[24] = system: HepG2; experiment: Induction of apoptosis in human HepG2 cells assessed as upregulation of cleaved caspase-3 levels at 0.5 uM after 48 hrs by Western blot analysis; type: functional, cell-based
[25] = system: HepG2; experiment: Induction of apoptosis in human HepG2 cells assessed as upregulation of cleaved caspase-3 levels after 48 hrs by Western blot analysis; type: functional, cell-based
[26] = system: HepG2; experiment: Downregulation of Cdc25C in human HepG2 cells at 10 to 100 nM after 24 hrs by Western blot analysis; type: functional, cell-based
[27] = system: HepG2; experiment: Downregulation of Cdk1 in human HepG2 cells at 10 to 100 nM after 24 hrs by Western blot analysis; type: functional, cell-based
[28] = system: HepG2; experiment: Cell cycle arrest in human HepG2 cells assessed as accumulation at S phase at 500 nM after 24 hrs by propidium iodide staining based flow cytometry (reference value: 39%); type: functional
[29] = system: HepG2; experiment: Cell cycle arrest in human HepG2 cells assessed as accumulation at G2/M phase at 500 nM after 24 hrs by propidium iodide staining based flow cytometry (reference value: 19%); type: functional
[30] = system: HepG2; experiment: Antitumor activity against human HepG2 cells xenografted with nude mouse assessed as tumor volume at 5 mg/kg, iv administered every 2 days for 31 days (reference value: 103.6 +/- 1.77 mm3); type: functional
[31] = system: HepG2; experiment: Antitumor activity against human HepG2 cells xenografted with nude mouse assessed as tumor weight at 5 mg/kg, iv administered every 2 days for 31 days; type: functional

Compound: Cc1nc(N(C)c2ccc(OCCN3CCN(Cc4ccc(F)c(F)c4)CC3)cc2)c2ccccc2n1
IC50 [1]: 6120 nM | IC50 [2]: > 10000 nM | IC50 [3]: 6580 nM | IC50 [4]: 3270 nM

Compound: Cc1nc(N(C)c2ccc(OCCN3CCN(Cc4ccccc4F)CC3)cc2)c2ccccc2n1
IC50 [1]: 690 nM | IC50 [2]: 281 nM | IC50 [3]: 89 nM | IC50 [4]: 716 nM

Compound: CN(c1ccc(OCCN2CCN(Cc3ccccc3F)CC2)cc1)c1nc(Cl)nc2ccccc12
Activity [5]: Non-toxic | Activity [6]: 44% | Activity [7]: 10% | Activity [8]: 259.78 mm3 | Activity [9]: Non-toxic | IC50 [1]: 99 nM | Activity [10]: Active | Activity [11]: 26% | Activity [12]: Non-toxic | Activity [13]: 0.217 g | Activity [14]: Active | Activity [15]: Active | Activity [16]: 78.69% | Activity [17]: Active | Activity [18]: 30% | Activity [19]: Dose-dependent effect | IC50 [2]: 147 nM | IC50 [3]: 29 nM | Activity [20]: 37% | Activity [21]: Dose-dependent effect | Activity [22]: 25% | Activity [23]: 38% | IC50 [4]: 52 nM | Activity [24]: Active | Activity [25]: Dose-dependent effect | Activity [26]: Active | Activity [27]: Active | Activity [28]: 23% | Activity [29]: 67%

Compound: Cc1nc(N(C)c2ccc(OCCN3CCN(Cc4ccccc4Cl)CC3)cc2)c2ccccc2n1
IC50 [1]: 2320 nM | IC50 [2]: 872 nM | IC50 [3]: 555 nM | IC50 [4]: 2920 nM

Compound: Cc1nc(N(C)c2ccc(OCCN3CCN(Cc4ccccc4C#N)CC3)cc2)c2ccccc2n1
IC50 [1]: 1010 nM | IC50 [2]: 5740 nM | IC50 [3]: 890 nM | IC50 [4]: 883 nM

Compound: Cc1nc(N(C)c2ccc(OCCN3CCN(Cc4ccccc4Br)CC3)cc2)c2ccccc2n1
IC50 [1]: 2160 nM | IC50 [2]: > 10000 nM | IC50 [3]: 441 nM | IC50 [4]: 1230 nM

Compound: CN(c1ccc(OCCN2CCN(Cc3c(F)cccc3F)CC2)cc1)c1nc(Cl)nc2ccccc12
IC50 [1]: 1980 nM | IC50 [2]: 6350 nM | IC50 [3]: 1450 nM | IC50 [4]: 3210 nM

Compound: COc1cccc2c1C(=O)c1c(O)c3c(c(O)c1C2=O)C[C@@](O)(C(=O)CO)C[C@@H]3O[C@H]1C[C@H](N)[C@H](O)[C@H](C)O1.Cl [DOXORUBICIN HYDROCHLORIDE]
Activity [30]: 238.7 mm3 | Activity [31]: 0.188 g

The next lines start with results.

IC50 [1]: 2340 nM | IC50 [2]: 1560 nM | IC50 [3]: 1310 nM
Compound: CN(c1ccc(OCCN2CCN(Cc3ccc(F)c(F)c3)CC2)cc1)c1nc(Cl)nc2ccccc12
IC50 [4]: 892 nM

IC50 [1]: 1230 nM | IC50 [2]: 371 nM | IC50 [3]: 650 nM
Compound: CN(c1ccc(OCCN2CCN(Cc3ccccc3Cl)CC2)cc1)c1nc(Cl)nc2ccccc12
IC50 [4]: 980 nM

IC50 [1]: > 10000 nM | IC50 [2]: > 10000 nM | IC50 [3]: > 10000 nM
Compound: Cc1nc(N(C)c2ccc(OCCN3CCN(Cc4ccc(C(C)(C)C)cc4)CC3)cc2)c2ccccc2n1
IC50 [4]: > 10000 nM

IC50 [1]: > 10000 nM | IC50 [2]: > 10000 nM | IC50 [3]: > 10000 nM
Compound: CN(c1ccc(OCCN2CCN(Cc3ccc(C(C)(C)C)cc3)CC2)cc1)c1nc(Cl)nc2ccccc12
IC50 [4]: > 10000 nM
